US8536168B2 (Novartis AG, priority 2007, dated 2013)
Read-outs that look alike come from different tables or passages of the source.

Assays:
[1] = biological target: human Smoothened receptor (Homo sapiens, UniProt Q99835); experiment: Smo binding assay, displacement of radio-labeled smoothened agonist, filter binding format (human); conditions: displacement of small molecule agonist of Smoothened, read-out: Human Smo bdg., IC50
Source text: A Smo binding assay was developed using radio-labeled smoothened agonist for compound competition. Table 9 lists the IC50 for displacement of a small molecule agonist of Smoothened determined in a filter binding format for the mouse and human Smoothened receptor.

Gli-luciferase activity = experiment: Reporter gene assay (RGA) in TMHh12 cells, antagonism of Gli-luciferase activity in the presence of a Smo agonist; type: cell-based
Experimental: Activity of the compounds was evaluated using a reporter gene assay (RGA) in TMHh12 cells.

[2] = biological target: mouse Smoothened receptor (Mus musculus, UniProt P56726); experiment: Smo binding assay, displacement of radio-labeled smoothened agonist, filter binding format (mouse); conditions: displacement of small molecule agonist of Smoothened, read-out: Mouse Smo bdg., IC50
Sequence of mouse Smoothened receptor (P56726 33-793): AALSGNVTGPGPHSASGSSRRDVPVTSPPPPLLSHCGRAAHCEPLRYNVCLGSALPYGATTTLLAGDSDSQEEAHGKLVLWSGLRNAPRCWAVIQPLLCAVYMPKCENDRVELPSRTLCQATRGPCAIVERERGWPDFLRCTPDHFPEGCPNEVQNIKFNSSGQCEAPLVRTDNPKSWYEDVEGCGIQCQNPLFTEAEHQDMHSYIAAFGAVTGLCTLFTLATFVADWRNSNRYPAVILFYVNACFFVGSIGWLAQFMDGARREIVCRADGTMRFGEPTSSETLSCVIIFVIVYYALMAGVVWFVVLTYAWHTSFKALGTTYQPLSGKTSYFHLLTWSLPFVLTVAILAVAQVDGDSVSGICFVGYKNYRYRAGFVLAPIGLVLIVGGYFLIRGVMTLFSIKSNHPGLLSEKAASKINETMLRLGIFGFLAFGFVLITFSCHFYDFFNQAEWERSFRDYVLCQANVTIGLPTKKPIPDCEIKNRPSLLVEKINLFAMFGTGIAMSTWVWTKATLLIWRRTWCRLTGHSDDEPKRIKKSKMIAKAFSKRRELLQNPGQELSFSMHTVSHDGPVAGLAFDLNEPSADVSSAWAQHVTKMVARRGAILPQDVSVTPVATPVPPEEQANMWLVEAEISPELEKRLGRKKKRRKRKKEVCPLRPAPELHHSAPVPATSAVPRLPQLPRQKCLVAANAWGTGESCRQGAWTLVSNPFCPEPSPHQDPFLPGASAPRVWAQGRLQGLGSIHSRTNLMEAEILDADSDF
Source text: A Smo binding assay was developed using radio-labeled smoothened agonist for compound competition.

[3] = 25 nM small molecule Smo agonist, read-out: RGA (25 nM Smo agonist) IC50
[4] = read-out: RGA (1 nM Smo agonist) IC50, 1 nM small molecule Smo agonist

Sequence of human Smoothened receptor (Q99835 28-787): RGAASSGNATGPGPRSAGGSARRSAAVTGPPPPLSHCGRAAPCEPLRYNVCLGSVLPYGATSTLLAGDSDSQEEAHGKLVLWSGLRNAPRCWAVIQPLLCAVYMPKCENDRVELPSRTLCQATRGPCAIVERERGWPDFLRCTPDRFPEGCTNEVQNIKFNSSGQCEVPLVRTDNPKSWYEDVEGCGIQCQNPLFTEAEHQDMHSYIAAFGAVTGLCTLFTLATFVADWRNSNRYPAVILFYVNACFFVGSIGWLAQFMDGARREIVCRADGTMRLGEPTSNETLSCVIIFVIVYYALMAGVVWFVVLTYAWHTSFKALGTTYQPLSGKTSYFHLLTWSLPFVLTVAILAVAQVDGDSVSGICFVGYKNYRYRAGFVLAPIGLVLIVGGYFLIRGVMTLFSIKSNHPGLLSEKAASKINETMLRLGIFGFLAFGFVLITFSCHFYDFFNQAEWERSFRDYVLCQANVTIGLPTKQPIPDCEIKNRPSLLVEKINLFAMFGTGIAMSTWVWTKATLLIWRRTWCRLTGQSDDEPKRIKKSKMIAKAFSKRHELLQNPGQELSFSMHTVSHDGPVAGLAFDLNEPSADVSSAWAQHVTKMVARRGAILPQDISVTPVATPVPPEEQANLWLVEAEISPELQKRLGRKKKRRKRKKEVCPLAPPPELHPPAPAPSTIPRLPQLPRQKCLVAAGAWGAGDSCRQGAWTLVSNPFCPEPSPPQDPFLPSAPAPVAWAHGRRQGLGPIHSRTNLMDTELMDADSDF

SMILES | IC50 [1] [nM] | IC50 (Gli-luciferase activity; [3]) [nM] | IC50 (Gli-luciferase activity; [4]) [nM] | IC50 [2] [nM]
CC(C)OC(=O)NCc1ccc(N2CCN(c3nnc(Cc4ccccc4)c4ccccc34)CC2)nc1 [Example 211] | < 100 | 100 to 1000 | < 100 | < 100
CN(C)CC(=O)NCc1ccc(N2CCN(c3nnc(Cc4ccccc4)c4ccccc34)CC2)nc1 [Example 212] | < 100 | 100 to 1000 | < 100 | < 100
CC(=O)NCc1ccc(N2CCN(c3nnc(Cc4ccccc4)c4ccccc34)[C@@H](C)C2)nc1 [Example 216] | < 100 | < 100 | < 100 | < 100
CN(C)Cc1ccc(N2CCN(c3nnc(Cc4ccccc4)c4ccccc34)CC2)nc1 [Example 217, {6-[4-(4-Benzyl-phthalazin-1-yl)-piperazin-1-yl]-pyridin-3-ylmethyl}-dimethyl-amine] | 1000 to 10000 | 1000 to 10000 | < 100 | 1000 to 10000
OC(c1ccc(N2CCN(c3nnc(Cc4ccccc4)c4ccccc34)CC2)nc1)C1CC1 (stereo not drawn) [Example 219] | < 100 | 100 to 1000 | 100 to 1000 | < 100
CC(C)C(O)c1ccc(N2CCN(c3nnc(Cc4ccccc4)c4ccccc34)CC2)nc1 (stereo not drawn) [Example 220] | < 100 | < 100 | < 100 | < 100
c1ccc(Cc2nnc(N3CCN(c4ccc(CN5CCOCC5)cn4)CC3)c3ccccc23)cc1 [Example 222, 1-Benzyl-4-[4-(5-morpholin-4-ylmethyl-pyridin-2-yl)-piperazin-1-yl]-phthalazine] | < 100 | < 100 | < 100 | < 100
c1ccc(Cc2nnc(N3CCN(c4ccc(CNC5CCOCC5)cn4)CC3)c3ccccc23)cc1 [Example 225] | 100 to 1000 | 100 to 1000 | < 100 | 100 to 1000
CN(Cc1ccc(N2CCN(c3nnc(Cc4ccccc4)c4ccccc34)CC2)nc1)C1CCOCC1 [Example 226] | 100 to 1000 | 100 to 1000 | < 100 | < 100
FC1CCN(Cc2ccc(N3CCN(c4nnc(Cc5ccccc5)c5ccccc45)CC3)nc2)CC1 [Example 227] | 100 to 1000 | 100 to 1000 | < 100 | < 100
FC1(F)CN(Cc2ccc(N3CCN(c4nnc(Cc5ccccc5)c5ccccc45)CC3)nc2)C1 [Example 229] | < 100 | 100 to 1000 | 100 to 1000 | < 100
c1ccc(Cc2nnc(N3CCN(c4ccc(CNC5COC5)cn4)CC3)c3ccccc23)cc1 [Example 230] | 100 to 1000 | 100 to 1000 | < 100 | 100 to 1000
CN(C)C(=O)Nc1ccc(N2CCN(c3nnc(Cc4ccccc4)c4ccccc34)CC2)nc1 [Example 238, 3-{6-[4-(4-Benzyl-phthalazin-1-yl)-piperazin-1-yl]-pyridin-3-yl}-1,1-dimethyl-urea] | 100 to 1000 | 100 to 1000 | < 100 | 100 to 1000
COC(=O)Nc1ccc(N2CCN(c3nnc(Cc4ccccc4)c4ccccc34)CC2)nc1 [Example 239, {6-[4-(4-Benzyl-phthalazin-1-yl)-piperazin-1-yl]-pyridin-3-yl}-carbamic acid methyl ester] | 100 to 1000 | 100 to 1000 | < 100 | < 100
Cc1c(Cc2ccccc2)nnc(N2CCN(c3ccc(C(F)(F)F)cn3)CC2)c1CNCc1ccccc1 [Example 241, N-benzyl-1-(6-benzyl-5-methyl-3-(4-(5-(trifluoromethyl)pyridin-2-yl)piperazin-1-yl)pyridazin-4-yl)methanamine] | 1000 to 10000 | 10000 to 40000 | 1000 to 10000 | 1000 to 10000
CC(C)n1cc2c(Cc3ccccc3)nnc(N3CCN(c4ccc(C(F)(F)F)cn4)CC3)c2c1 [Example 244, 1-benzyl-6-isopropyl-4-(4-(5-(trifluoromethyl)pyridin-2-yl)piperazin-1-yl)-6H-pyrrolo[3,4-d]pyridazine] | 100 to 1000 | 1000 to 10000 | 1000 to 10000 | 100 to 1000
FC(F)(F)c1ccc(N2CCN(c3nnc(Cc4ccccc4)c4occc34)CC2)nc1 [Example 245, 7-Benzyl-4-[4-(5-trifluoromethyl-pyridin-2-yl)-piperazin-1-yl]-furo[2,3-d]pyridazine] | 100 to 1000 | 1000 to 10000 | < 100 | 100 to 1000
FC(F)(F)c1ccc(N2CCN(c3nnc(Cc4ccccc4)c4[nH]cnc34)CC2)nc1 [Example 247, 7-Benzyl-4-[4-(5-trifluoromethyl-pyridin-2-yl)-piperazin-1-yl]-1H-imidazo[4,5-d]pyridazine] | 100 to 1000 | 1000 to 10000 | 1000 to 10000 | 100 to 1000

The remaining lines, values ahead:

IC50 [1] [nM] | IC50 (Gli-luciferase activity; [3]) [nM] | IC50 (Gli-luciferase activity; [4]) [nM] | IC50 [2] [nM] | SMILES
100 to 1000 | 100 to 1000 | < 100 | 100 to 1000 | CC(O)CC(=O)NCc1ccc(N2CCN(c3nnc(Cc4ccccc4)c4ccccc34)CC2)nc1 (stereo not drawn) [Example 213]
< 100 | 100 to 1000 | < 100 | < 100 | OC(c1ccc(N2CCN(c3nnc(Cc4ccccc4)c4ccccc34)CC2)nc1)C1CCCC1 (stereo not drawn) [Example 221]
100 to 1000 | 100 to 1000 | < 100 | < 100 | OC1CCN(Cc2ccc(N3CCN(c4nnc(Cc5ccccc5)c5ccccc45)CC3)nc2)C1 (stereo not drawn) [Example 223]
< 100 | 100 to 1000 | 100 to 1000 | < 100 | FC1(F)CCN(Cc2ccc(N3CCN(c4nnc(Cc5ccccc5)c5ccccc45)CC3)nc2)CC1 [Example 228]
< 100 | < 100 | < 100 | < 100 | c1ccc(Cc2nnc(N3CCN(c4ccc(CN(C5COC5)C5COC5)cn4)CC3)c3ccccc23)cc1 [Example 231]
< 100 | 100 to 1000 | 100 to 1000 | < 100 | FC(F)(F)c1ccc(N2CCN(c3nnc(Cc4ccccc4)c4c3C=CCC4)CC2)nc1 [Example 240, 4-Benzyl-1-(4-(5-(trifluoromethyl)pyridin-2-yl)piperazin-1-yl)-5,6-dihydrophthalazine]
1000 to 10000 | 1000 to 10000 | 1000 to 10000 | 1000 to 10000 | Cc1c(N2CCN(c3ccc(C(F)(F)F)cn3)CC2)nnc(Cc2ccccc2)c1CNCc1ccccc1 [Example 242, N-benzyl-1-(3-benzyl-5-methyl-6-(4-(5-(trifluoromethyl)pyridin-2-yl)piperazin-1-yl)pyridazin-4-yl)methanamine]
1000 to 10000 | 1000 to 10000 | 1000 to 10000 | 100 to 1000 | COc1ccc(CN2Cc3c(Cc4ccccc4)nnc(N4CCN(c5ccc(C(F)(F)F)cn5)CC4)c3C2)cc1 [Example 243, 1-benzyl-6-(4-methoxybenzyl)-4-(4-(5-(trifluoromethyl)pyridin-2-yl)piperazin-1-yl)-6,7-dihydro-5H-pyrrolo[3,4-d]pyridazine]
1000 to 10000 | 1000 to 10000 | < 100 | 10000 to 40000 | FC(F)(F)c1ccc(N2CCN(c3nnc(Cc4ccccc4)c4ccoc34)CC2)nc1 [Example 246, 4-Benzyl-7-[4-(5-trifluoromethyl-pyridin-2-yl)-piperazin-1-yl]-furo[2,3-d]pyridazine]
